# pEC50, pKi: −log10 of the molar value.
# Tests used:
# dopamine D2 receptors [1] = target: T1, dopamine D2 receptors (Homo sapiens (Human), UniProt P14416); assay: β-arrestin2 recruitment BRET, dopamine D2 receptor functional activity; format: cell-based; conditions: for Emax: relative to the endogenous ligand dopamine, read-out: β-arrestin2 BRET Emax % ± SEM; for EC50: n=3, read-out: β-arrestin2 BRET pEC50 ± SEM (converted)
# Experimental: To examine the downstream f3-arrestin2 signaling pathway mediated by dopamine D2 receptors, 6 cm dish was used for transfection with 500 […] of dopamine D2 receptors fused to seaweed luciferase (D2-Rluc), 500 μg of G protein-coupled receptor kinase 2 (GRK2), 2500 μg of β-arrestin2 fused to green fluorescent protein (GFP2-ARRB2) and 14 μL of transfection reagent PEI. The next day, the overgrown cells were digested and plated a 96-well plate at the amount of cells contained in a 6 cm culture dish with overgrown cells, and 100 μL of culture medium was added to each well. On the third day, the drugs were added for test.
# (§1) To examine downstream G-protein signaling pathway mediated by dopamine D2 receptors, on the first day, 6 cm dish was used for transfection with 1μg of dopamine D2 receptors, 1μg of Gαi1 containing C-terminal seaweed luciferase (GGαi1-Rluc), 1 μg of […], 1 μg of Gγ9 containing C-terminal green fluorescent protein (Gγ9-GFP) and 16 μL of PEI. At the same time, in order to examine the downstream f3-arrestin2 signaling pathway mediated by dopamine D2 receptors, on the first day, 6 cm dish was used for transfection with 500 μg of dopamine D2 receptors containing C-terminal seaweed luciferase (D2-Rluc), 500 μg of G protein-coupled receptor kinase 2 (GRK2), 2500 μg of […] containing N-terminal green fluorescent protein (GFP2-ARRB2) and 14 μL of PEI. The next day, the overgrown cells were digested and plated a 96-well plate at the amount of cells contained in a 6 cm culture dish with overgrown cells, and 100 μL of culture medium was added to each well. On the third day, the drugs were added for test. The 96-well plate was taken out from the cell culture room to remove the culture medium, 40 μL of the substrate coelenterazine 400a (final concentration of 5 μM) was added to each well, and then 20 μL of different drugs were added in turn from left to right to ensure that the final concentration of the drugs decreased gradually from bottom to top, and each treatment was repeated twice. Finally, the prepared samples were loaded on machine for test. The machine reading value reflected the intracellular β-arrestin2 on the membrane and the dissociation of G protein trimer. The former indicated the degree of activation of the β-arrestin2 signaling pathway downstream of the dopamine D2 receptors, and the latter indicated the degree of activation of the G protein signaling pathway downstream of the dopamine D2 receptors.
# dopamine D2 receptors [2] = target: T1, dopamine D2 receptors; assay: G protein Gαi1-γ9 dissociation BRET, dopamine D2 receptor functional activity; format: cell-based; conditions: for Emax: relative to the endogenous ligand dopamine, read-out: Gai1 BRET Emax % ± SEM
# Experimental: To examine downstream G protein signaling mediated by dopamine D2 receptors, 6 cm dish was used for transfection with 1μg of dopamine D2 receptors, 1μg of Gαi1 fused to seaweed luciferase (Gαi1-Rluc), 1 μg of Gβ3, 1 μg of Gγ9 fused to green fluorescent protein (Gγ9-GFP) and 16 μL of transfection reagent PEI. […] On the third day, the drugs were added for test.
# as §1
# dopamine D2 receptors [3] = target: T1, dopamine D2 receptors; assay: Radioligand competition binding, affinity for dopamine D2 receptors ([3H]-Methylspiperone); conditions: [3H]-Methylspiperone (0.3-0.5 nM), HEK-293T membranes; for pKi: I-1 to 19 n=3, I-20 to 27 single determination; for Affinity pKi ± SEM: n=3
# Experimental: A 10 cm diameter dish was used for transfection with 10 ng of the dopamine D2 receptors and 40 μL of PEI. After 48 hours, the 10 cm dish was taken out from the cell culture room and the cultured cells had expressed the dopamine D2 receptors. A vacuum pump was used to suck off the culture medium, 3 mL of lysis buffer (50 mM Tris hydrochloric acid buffer, pH 7.4) was added to each well, and the cells were placed in a 4° C. freezer for 10 minutes. After the cells were detached, the cells were transferred to a 15 mL centrifuge tube and centrifuged at 1500 rpm for 5 minutes at 4° C., and the supernatant was discarded. The cell pellet was transferred to a tissue homogenizer, and 3 mL of lysis buffer was added and fully ground until the cells were broken. Then, cell suspension was equally divided into several EP tubes, centrifuged at 4° C. and 12000 rpm for 5 min, and the supernatant was discarded. The precipitate was the cell membrane component containing the dopamine D2 receptors and stored at −80° C.
# First, a standard binding buffer (50 mM HEPES, 50 mM NaCl, 5 mM MgCl2, 0.5 mM EDTA, pH 7.4) was added to the cell membrane component containing the dopamine D2 receptors, and the cell membrane was disrupted and resuspended with an electric tissue homogenizer. 30 μL of membrane protein suspension was added to each well of a 96-well plate. Then, 30 μL of different drugs were added to the 96-well plate from left to right to ensure that the final drug concentrations were 10^−5 M, 10^−6 M, 10^−7 M, 10^−8 M, 10^−9 M and 0 M, with two replicates per treatment. Next, 30 μL [^3H]-N-Methylspiperone was added to each well of the 96-well plate, and the plate was incubated for 2 hours at room temperature in the dark. The unbound isotopes were removed by Whatman GF/C filter membrane and vacuum pump, and the isotopes bound to the receptors were detected by MicroBeta isotope liquid scintillation counter.
# The affinity of the compounds of the present invention for the dopamine D2 receptors was determined by the method of radioligand competition experiment. In the first step, a cell membrane component containing specific dopamine D2 receptors was prepared. A10 cm dish was used for transfection with 10 ng of the dopamine D2 receptors and 40 μL of PEI. After 48 hours, the 10 cm dish was taken out from the cell culture room and the cultured cells had expressed the dopamine D2 receptors. A vacuum pump was used to suck off the culture medium, 3 mL of lysis buffer was added to each well, and the cells were placed in a 4° C. freezer for 10 minutes. After the cells were detached, the cells were transferred to a 15 mL centrifuge tube and centrifuged at 1500 rpm for 5 minutes at 4° C., and the supernatant was discarded. The cell pellet was transferred to a tissue homogenizer, and 3 mL of lysis buffer was added and fully ground until the cells were broken. Then, cell suspension was equally divided into several EP tubes, centrifuged at 4° C. and 12000 rpm for 5 min, and the supernatant was discarded. The precipitate was the cell membrane component containing the dopamine D2 receptors. […] First, a standard binding buffer was added to the cell membrane component containing the dopamine D2 receptors, and the cell membrane was disrupted and resuspended with an electric tissue homogenizer. 30 μL of membrane protein suspension was added to each well of a 96-well plate. Then, 30 μL of different drugs were added to the 96-well plate from left to right to ensure that the final drug concentrations were 10^−5 M, 10^−6 M, 10^−7 M, 10^−8 M, 10^−9 M and 0 M, with two replicates per treatment. Next, 30 μL [^3H]-Methylspiperone was added to each well of the 96-well plate. The plate was incubated for 2 hours at room temperature in the dark. Detection. The machine reading value reflected the amount of [^3H]-Methylspiperone bound on the membrane, and after further data processing, the affinity Ki value of different compounds for dopamine D2 receptors was obtained.
# [4] = HEK-293T, I-1 to 19 n=3, I-20 to 27 single determination, read-out: β-arrestin2 BRET EC50
# [5] = HEK-293T, I-1 to 19 n=3, I-20 to 27 single determination, read-out: Gai1 BRET EC50
# [6] = antagonistic activity, single determination, read-out: Gai1 BRET EC50 (antagonistic activity)
# T1 sequence (P14416 whole entry, the tested form may be a part): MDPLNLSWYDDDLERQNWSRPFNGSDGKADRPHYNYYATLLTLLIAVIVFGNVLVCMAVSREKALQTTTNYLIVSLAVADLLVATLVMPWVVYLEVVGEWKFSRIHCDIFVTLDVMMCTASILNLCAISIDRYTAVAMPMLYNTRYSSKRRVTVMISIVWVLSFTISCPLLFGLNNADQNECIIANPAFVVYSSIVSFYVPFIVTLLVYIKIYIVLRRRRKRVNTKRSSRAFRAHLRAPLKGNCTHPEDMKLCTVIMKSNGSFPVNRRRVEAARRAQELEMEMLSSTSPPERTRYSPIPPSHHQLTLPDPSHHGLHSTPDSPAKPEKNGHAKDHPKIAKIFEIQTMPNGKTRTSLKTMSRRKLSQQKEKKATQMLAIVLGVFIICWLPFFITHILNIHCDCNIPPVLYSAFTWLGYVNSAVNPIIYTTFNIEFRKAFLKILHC
Compound,pEC50 (dopamine D2 receptors [1]; [4]),Emax (dopamine D2 receptors [1]) [%],pEC50 (dopamine D2 receptors [2]; [5]),Emax (dopamine D2 receptors [2]) [%],pKi (dopamine D2 receptors [3]),Affinity pKi ± SEM (dopamine D2 receptors [3]),EC50 (dopamine D2 receptors [1]) [nM],"EC50 (dopamine D2 receptors [2]; n=3, read-out: Gai1 BRET pEC50 ± SEM (converted)) [nM]","pEC50 (dopamine D2 receptors [1]; antagonistic activity, single determination, read-out: β-arrestin2 BRET EC50 (antagonistic activity))",pEC50 (dopamine D2 receptors [2]; [6]),"β-arrestin2 BRET EC50 (dopamine D2 receptors [1]; HEK-293T, I-1 to 19 n=3, I-20 to 27 single determination)"
CN(C)C(=O)N[C@H]1CC[C@H](CN2CCN3c4cccc5[nH]cc(c45)CC3C2)CC1 (some centres unmarked) [Compound I-16],7.39,90,7.23,84,–,–,–,–,–,–,–
"O=C(N[C@H]1CC[C@H](CCN2CCN3c4cccc5[nH]cc(c45)CC3C2)CC1)N1CCCCC1 (stereo partly drawn) [Compound I-12, N-(4-(2-(4,6,6a,7,9,10-hexahydro-8H-pyrazino[1,2-a]pyrrolo[4,3,2-de]quinolin-8-yl)ethyl)trans-cyclohexyl)piperidine-1-carboxamide]",7.69,89,7.76,92,7.57,(7.57 ± 0.03),–,–,–,–,–
"CN(C)C(=O)N[C@H]1CC[C@H](CCN2CCN3c4cccc5c4c(cn5C)CC3C2)CC1 (stereo partly drawn) [Compound I-19, 1,1-dimethyl-3-(4-(2-(4-methyl-4,6,6a,7,9,10-hexahydro-8H-pyrazino[1,2-a]pyrrolo[4,3,2-de]quinolin-8-yl)ethyl)trans-cyclohexyl)urea]",–,34,8.40,71,7.28,(7.28 ± 0.15),28.8,4.17,–,–,–
O=c1ccc2ccc(OC/C=C/CN3CCN4c5cccc6[nH]cc(c56)CC4C3)cc2[nH]1 (centres unmarked) [Compound I-21],7.21,90,8.11,77,–,–,–,–,–,–,–
"Cc1nc2n(c(=O)c1CCN1CCN3c4cccc5[nH]cc(c45)CC3C1)CCCC2 (centres unmarked) [Compound I-17, 3-(2-(4,6,6a,7,9,10-hexahydro-8H-pyrazino[1,2-a]pyrrolo[4,3,2-de]quinolin-8-yl)ethyl)-2-methyl-6,7,8,9-tetrahydro-4H-pyrido[1,2-a]pyrimidin-4-one]",6.69,38,7.49,61,7.25,(7.25 ± 0.12),200,–,–,–,–
"Cn1cc2c3c(cccc31)N1CCN(CCCC(O)c3ccc(F)cc3)CC1C2 (centres unmarked) [Compound I-27, 1-(4-fluorobenzene)-4-(4-methyl-4,6,6a,7,9,10-hexahydro-8H-pyrazino[1,2-a]pyrrolo[4,3,2-de]quinolin-8-yl)-1-butanol]",–,–,–,–,–,–,–,–,5.81,5.92,–
"O=C1CCc2ccc(OCCCN3CCN4c5cccc6[nH]cc(c56)CC4C3)cc2N1 (centres unmarked) [Compound I-7, 7-(3-(4,6,6a,7,9,10-hexahydro-8H-pyrazino[1,2-a]pyrrolo[4,3,2-de]quinolin-8-yl)propoxy)-3,4-dihydroquinolin-2(1H)-one]",6.56,97,6.86,104,6.40,(6.40 ± 0.12),–,–,–,–,–
O=C1CCc2ccc(OC/C=C/CN3CCN4c5cccc6[nH]cc(c56)CC4C3)cc2N1 (centres unmarked) [Compound I-20],7.01,88,7.99,74,–,–,–,–,–,–,–
c1cc2c3c(c[nH]c3c1)CC1CN(CCCCOc3ccc4scnc4c3)CCN21 (centres unmarked) [Compound I-3],7.19,93,7.36,92,–,–,–,–,–,–,–
"Cn1cc2c3c(cccc31)N1CCN(CCCC(=O)c3ccc(F)cc3)CC1C2 (centres unmarked) [Compound I-26, 1-(4-fluorobenzene)-4-(4-methyl-4,6,6a,7,9,10-hexahydro-8H-pyrazino[1,2-a]pyrrolo[4,3,2-de]quinolin-8-yl)-1-butanone]",–,–,–,–,–,–,–,–,–,5.12,Inactive
"OC(CCCN1CCN2c3cccc4[nH]cc(c34)CC2C1)c1ccc(F)cc1 (centres unmarked) [Compound I-25, 1-(4-fluorobenzene)-4-(4,6,6a,7,9,10-hexahydro-8H-pyrazino[1,2-a]pyrrolo[4,3,2-de]quinolin-8-yl)-1-butanol]",8.02,30,8.13,29,–,–,–,–,–,–,–
"O=C(N[C@H]1CC[C@H](CCN2CCN3c4cccc5[nH]cc(c45)CC3C2)CC1)N1CCCC1 (stereo partly drawn) [Compound I-11, N-(4-(2-(4,6,6a,7,9,10-hexahydro-8H-pyrazino[1,2-a]pyrrolo[4,3,2-de]quinolin-8-yl)ethyl)trans-cyclohexyl)tetrahydropyrrole-l-carboxamide]",7.95,87,8.03,91,–,–,–,–,–,–,–
"c1cc2c3c(c[nH]c3c1)CC1CN(CCCOc3ccc4c(c3)OCO4)CCN21 (centres unmarked) [Compound I-9, 8-(3-(benzo[d][1,3]dioxo1-5-yloxy)propyl)-6,6a,7,8,9,10-hexahydro-4H-pyrazino[1,2-a]pyrrolo[4,3,2-de]quinoline]",6.83,96,6.78,92,–,–,–,–,–,–,–
"O=C(CCCN1CCN2c3cccc4[nH]cc(c34)CC2C1)c1ccc(F)cc1 (centres unmarked) [Compound I-24, 1-(4-fluorobenzene)-4-(4,6,6a,7,9,10-hexahydro-8H-pyrazino[1,2-a]pyrrolo[4,3,2-de]quinolin-8-yl)-1-butanone]",7.98,26,7.94,38,–,–,–,–,–,–,–
